Measurements as given in PubChem BioAssay (NCI).
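Exposure lasted 48 hours, with cells grown in 96-well plates and compounds tested at five concentrations. Abbreviation: GI50, concentration required for 50% inhibition of growth. TGI: concentration producing complete growth inhibition.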

How the values were obtained:
Assay in all cases: inhibition of tumour cell growth, NCI panel, 48 h; in the data active = GI50 below about 0.43 µM; inactive = the rest
786-0 renal = test system: 786-0 renal
A498 renal = test system: A498 renal
A549 NSCLC = test system: A549 NSCLC
ACHN renal = test system: ACHN renal
BT-549 breast = test system: BT-549 breast
CAKI-1 renal = test system: CAKI-1 renal
CCRF-CEM leukemia = test system: CCRF-CEM leukemia
COLO 205 colon = test system: COLO 205 colon
DU-145 prostate = test system: DU-145 prostate
EKVX NSCLC = test system: EKVX NSCLC
HCC-2998 colon = test system: HCC-2998 colon
HCT-116 colon = test system: HCT-116 colon
HCT-15 colon = test system: HCT-15 colon
HL-60(TB) leukemia = test system: HL-60(TB) leukemia
HOP-62 NSCLC = test system: HOP-62 NSCLC
HOP-92 NSCLC = test system: HOP-92 NSCLC
HS 578T breast = test system: HS 578T breast
HT29 colon = test system: HT29 colon
IGROV1 ovarian = test system: IGROV1 ovarian
K-562 leukemia = test system: K-562 leukemia
KM12 colon = test system: KM12 colon
LOX IMVI melanoma = test system: LOX IMVI melanoma
M14 melanoma = test system: M14 melanoma
MALME-3M melanoma = test system: MALME-3M melanoma
MCF7 breast = test system: MCF7 breast
MDA-MB-231 breast = test system: MDA-MB-231 breast
MDA-MB-435 = test system: MDA-MB-435
MDA-N = test system: MDA-N
MOLT-4 leukemia = test system: MOLT-4 leukemia
NCI-H226 lung = test system: NCI-H226 lung
NCI-H23 lung = test system: NCI-H23 lung
NCI-H460 lung = test system: NCI-H460 lung
NCI-H522 lung = test system: NCI-H522 lung
NCI/ADR-RES ovarian = test system: NCI/ADR-RES ovarian
OVCAR-3 ovarian = test system: OVCAR-3 ovarian
OVCAR-4 ovarian = test system: OVCAR-4 ovarian
OVCAR-5 ovarian = test system: OVCAR-5 ovarian
OVCAR-8 ovarian = test system: OVCAR-8 ovarian
PC-3 prostate = test system: PC-3 prostate
RPMI-8226 leukemia = test system: RPMI-8226 leukemia
RXF 393 renal = test system: RXF 393 renal
SF-268 CNS = test system: SF-268 CNS
SF-295 CNS = test system: SF-295 CNS
SF-539 CNS = test system: SF-539 CNS
SK-MEL-2 melanoma = test system: SK-MEL-2 melanoma
SK-MEL-28 melanoma = test system: SK-MEL-28 melanoma
SK-MEL-5 melanoma = test system: SK-MEL-5 melanoma
SK-OV-3 ovarian = test system: SK-OV-3 ovarian
SN12C renal = test system: SN12C renal
SNB-19 CNS = test system: SNB-19 CNS
SNB-75 CNS = test system: SNB-75 CNS
SR leukemia = test system: SR leukemia
SW-620 colon = test system: SW-620 colon
T-47D breast = test system: T-47D breast
TK-10 renal = test system: TK-10 renal
U251 CNS = test system: U251 CNS
UACC-257 melanoma = test system: UACC-257 melanoma
UACC-62 melanoma = test system: UACC-62 melanoma
UO-31 renal = test system: UO-31 renal
DLD-1 colon = test system: DLD-1 colon
DMS 114 small cell lung = test system: DMS 114 small cell lung
DMS 273 small cell lung = test system: DMS 273 small cell lung
KM20L2 colon = test system: KM20L2 colon
LXFL 529 NSCLC = test system: LXFL 529 NSCLC
M19-MEL melanoma = test system: M19-MEL melanoma
SNB-78 CNS = test system: SNB-78 CNS

COc1nc(N=P(c2ccccc2)(c2ccccc2)c2ccccc2)cc(=O)[nH]1
> 100 µM: TGI (786-0 renal) | TGI (A498 renal) | TGI (A549 NSCLC) | TGI (ACHN renal) | TGI (BT-549 breast) | TGI (CAKI-1 renal) | TGI (CCRF-CEM leukemia) | TGI (COLO 205 colon) | TGI (DU-145 prostate) | TGI (EKVX NSCLC) | TGI (HCC-2998 colon) | TGI (HCT-116 colon) | TGI (HCT-15 colon) | TGI (HL-60(TB) leukemia) | TGI (HOP-62 NSCLC) | TGI (HOP-92 NSCLC) | TGI (HS 578T breast) | TGI (HT29 colon) | TGI (IGROV1 ovarian) | TGI (K-562 leukemia) | TGI (KM12 colon) | TGI (LOX IMVI melanoma) | TGI (M14 melanoma) | TGI (MALME-3M melanoma) | TGI (MCF7 breast) | TGI (MDA-MB-231 breast) | TGI (MDA-MB-435) | TGI (MDA-N) | TGI (MOLT-4 leukemia) | TGI (NCI-H226 lung) | TGI (NCI-H23 lung) | TGI (NCI-H460 lung) | TGI (NCI-H522 lung) | TGI (NCI/ADR-RES ovarian) | TGI (OVCAR-3 ovarian) | TGI (OVCAR-4 ovarian) | TGI (OVCAR-5 ovarian) | TGI (OVCAR-8 ovarian) | TGI (PC-3 prostate) | TGI (RPMI-8226 leukemia) | TGI (RXF 393 renal) | TGI (SF-268 CNS) | TGI (SF-295 CNS) | TGI (SF-539 CNS) | TGI (SK-MEL-2 melanoma) | TGI (SK-MEL-28 melanoma) | TGI (SK-MEL-5 melanoma) | TGI (SK-OV-3 ovarian) | TGI (SN12C renal) | TGI (SNB-19 CNS) | TGI (SNB-75 CNS) | TGI (SR leukemia) | TGI (SW-620 colon) | TGI (T-47D breast) | TGI (TK-10 renal) | TGI (U251 CNS) | TGI (UACC-257 melanoma) | TGI (UACC-62 melanoma) | TGI (UO-31 renal)

O=C(CC1(O)C(=O)Nc2ccccc21)c1ccncc1 (configuration not stated)
> 100 µM: TGI (786-0 renal) | TGI (A498 renal) | TGI (A549 NSCLC) | TGI (ACHN renal) | TGI (CAKI-1 renal) | TGI (CCRF-CEM leukemia) | TGI (COLO 205 colon) | TGI (DLD-1 colon) | TGI (DMS 114 small cell lung) | TGI (DMS 273 small cell lung) | TGI (EKVX NSCLC) | TGI (HCC-2998 colon) | TGI (HCT-116 colon) | TGI (HCT-15 colon) | TGI (HL-60(TB) leukemia) | TGI (HOP-92 NSCLC) | TGI (HT29 colon) | TGI (IGROV1 ovarian) | TGI (K-562 leukemia) | TGI (KM20L2 colon) | TGI (LOX IMVI melanoma) | TGI (LXFL 529 NSCLC) | TGI (M14 melanoma) | TGI (M19-MEL melanoma) | TGI (MOLT-4 leukemia) | TGI (NCI-H226 lung) | TGI (NCI-H23 lung) | TGI (NCI-H460 lung) | TGI (NCI-H522 lung) | TGI (OVCAR-4 ovarian) | TGI (OVCAR-5 ovarian) | TGI (RPMI-8226 leukemia) | TGI (RXF 393 renal) | TGI (SF-268 CNS) | TGI (SF-295 CNS) | TGI (SF-539 CNS) | TGI (SK-MEL-2 melanoma) | TGI (SK-MEL-28 melanoma) | TGI (SK-MEL-5 melanoma) | TGI (SK-OV-3 ovarian) | TGI (SN12C renal) | TGI (SNB-19 CNS) | TGI (SNB-75 CNS) | TGI (SNB-78 CNS) | TGI (SR leukemia) | TGI (SW-620 colon) | TGI (U251 CNS) | TGI (UACC-62 melanoma) | TGI (UO-31 renal)

CCC/C=C/c1cc2c(cc1O)CC[C@@H]1[C@@H]2CC[C@]2(C)[C@@H](O)CC[C@@H]12
34.2 µM: TGI (ACHN renal) | TGI (DU-145 prostate)
35.5 µM: TGI (NCI-H522 lung)
30.6 µM: TGI (U251 CNS)
31.6 µM: TGI (HCT-116 colon)
27.3 µM: TGI (HL-60(TB) leukemia)
32.6 µM: TGI (KM12 colon)
47 µM: TGI (OVCAR-3 ovarian)
32.8 µM: TGI (CCRF-CEM leukemia)
45.7 µM: TGI (SR leukemia)
29 µM: TGI (UACC-62 melanoma)
77.1 µM: TGI (T-47D breast)
39.9 µM: TGI (HCT-15 colon)
33.7 µM: TGI (MDA-MB-231 breast)
64.2 µM: TGI (OVCAR-8 ovarian)
29.3 µM: TGI (LOX IMVI melanoma)
42.6 µM: TGI (HOP-62 NSCLC) | TGI (SF-268 CNS)
30.8 µM: TGI (UACC-257 melanoma)
37.3 µM: TGI (M14 melanoma)
30.1 µM: TGI (786-0 renal)
49.4 µM: TGI (IGROV1 ovarian)
45.8 µM: TGI (NCI-H226 lung)
33 µM: TGI (NCI-H460 lung)
inactive: GI50 (DU-145 prostate) 18.7 µM | GI50 (HCT-116 colon) 17.2 µM | GI50 (HOP-62 NSCLC) 21.9 µM | GI50 (SF-539 CNS) 20.2 µM | GI50 (SN12C renal) 17.1 µM
32.1 µM: TGI (MDA-MB-435) | TGI (SK-MEL-2 melanoma)
41.2 µM: TGI (EKVX NSCLC)
35.1 µM: TGI (OVCAR-5 ovarian)
42.5 µM: TGI (MOLT-4 leukemia)
36.1 µM: TGI (BT-549 breast)
41.8 µM: TGI (CAKI-1 renal)
38 µM: TGI (TK-10 renal)
> 56.6 µM: TGI (SNB-19 CNS)
37.4 µM: TGI (SW-620 colon)
63.2 µM: TGI (SK-OV-3 ovarian)
52.6 µM: TGI (MCF7 breast)
35.9 µM: TGI (NCI-H23 lung)
32.4 µM: TGI (SN12C renal)
44.9 µM: TGI (OVCAR-4 ovarian)
34.9 µM: TGI (SF-295 CNS)
38.8 µM: TGI (HCC-2998 colon)
35.7 µM: TGI (SF-539 CNS)
28.3 µM: TGI (MDA-N)
36.5 µM: TGI (COLO 205 colon) | TGI (SK-MEL-28 melanoma)
44.1 µM: TGI (NCI/ADR-RES ovarian)
45.5 µM: TGI (K-562 leukemia)
57.6 µM: TGI (HS 578T breast)
32.9 µM: TGI (HT29 colon)
37.5 µM: TGI (RPMI-8226 leukemia)
34.6 µM: TGI (SNB-75 CNS)
33.2 µM: TGI (RXF 393 renal)
31 µM: TGI (PC-3 prostate) | TGI (UO-31 renal)
31.8 µM: TGI (A498 renal)
30.2 µM: TGI (SK-MEL-5 melanoma)
40.8 µM: TGI (HOP-92 NSCLC)
36.9 µM: TGI (A549 NSCLC)
30.3 µM: TGI (MALME-3M melanoma)
